Reference: ChEMBL document CHEMBL4680194, “Synthesis and biological evaluation of 1,2,4-triazole derivatives as potential neuroprotectant against ischemic brain injury” (Eur J Med Chem, 2020)
Activity calls are given as the source filed them. No cut-off for these calls is given here.

Assays:
[1] = test system: PC-12; assay: Cytoprotective activity against H2O2-induced cell death in rat PC-12 cells assessed as increase in cell viability at 10 uM incubated for 1 hr followed by H2O2 stimulation and measured after 5 hrs by MTT assay; type: functional; conditions: time 6.0 hrs
[2] = test system: PC-12; assay: Cytoprotective activity against SNP-induced cell death in rat PC-12 cells assessed as increase in cell viability at 10 uM incubated for 1 hr followed by SNP stimulation and measured after 24 hrs by MTT assay; type: functional; conditions: time 25.0 hrs
[3] = Metal chelating activity of the compound assessed as Fe2+-compound complex formation incubated for 10 mins in presence of ferrozine by UV-visible spectrophotometry
[4] = test system: PC-12; assay: Cytoprotective activity against SNP-induced cell death in rat PC-12 cells assessed as increase in cell viability incubated for 1 hr followed by SNP stimulation and measured after 24 hrs by LDH assay; type: functional, cell-based; conditions: time 25.0 hrs
[5] = test system: PC-12; assay: Cytoprotective activity against H2O2-induced cell death in rat PC-12 cells assessed as increase in cell viability incubated for 1 hr followed by H2O2 stimulation and measured after 5 hrs by LDH assay; type: functional, cell-based; conditions: time 6.0 hrs

NS(=O)(=O)c1ccc(-n2nc(-c3ccc(F)cc3O)nc2-c2ccc(F)cc2O)cc1
Activity [1]: inactive | Activity [2]: inactive

Cc1ccc(-c2nc(-c3ccc(C)cc3O)n(-c3ccc(S(N)(=O)=O)cc3)n2)c(O)c1
Activity [1]: inactive | Activity [2]: inactive

NS(=O)(=O)c1ccc(-n2nc(-c3ccc(C(F)(F)F)cc3)nc2-c2ccccc2O)cc1
Activity [1]: inactive | Activity [2]: inactive | IC50 [3]: Not Active

NS(=O)(=O)c1ccc(-n2nc(-c3ccc([N+](=O)[O-])cc3)nc2-c2ccccc2O)cc1
Activity [1]: inactive | Activity [2]: inactive | IC50 [3]: Not Active

NS(=O)(=O)c1ccc(-n2nc(-c3ccccc3O)nc2-c2ccccc2O)cc1
Activity [4]: Dose-dependent effect | Activity [1]: Active | Activity [5]: Dose-dependent effect | Activity [2]: Active | IC50 ([3]; read-out: IC50): 42.9 µM

NS(=O)(=O)c1ccc(-n2nc(-c3ccc(C(F)(F)F)cc3O)nc2-c2ccc(C(F)(F)F)cc2O)cc1
Activity [1]: inactive | Activity [2]: inactive

Cc1ccc(-c2nc(-c3ccccc3O)n(-c3ccc(S(N)(=O)=O)cc3)n2)c(O)c1
Activity [4]: Dose-dependent effect | Activity [1]: Active | Activity [5]: Dose-dependent effect | Activity [2]: Active | IC50 ([3]; read-out: IC50): 35.1 µM

NS(=O)(=O)c1ccc(-n2nc(-c3ccc(C(F)(F)F)cc3O)nc2-c2ccccc2O)cc1
Activity [4]: Dose-dependent effect | Activity [1]: Active | Activity [5]: Dose-dependent effect | Activity [2]: Active | IC50 ([3]; read-out: IC50): 22.6 µM

NS(=O)(=O)c1ccc(-n2nc(-c3ccc(F)cc3)nc2-c2ccccc2O)cc1
Activity [1]: inactive | Activity [2]: inactive | IC50 [3]: Not Active

NS(=O)(=O)c1ccc(-n2nc(-c3ccc(Cl)cc3O)nc2-c2ccccc2O)cc1
Activity [4]: Dose-dependent effect | Activity [1]: Active | Activity [5]: Dose-dependent effect | Activity [2]: Active | IC50 ([3]; read-out: IC50): 36 µM

NS(=O)(=O)c1ccc(-n2nc(-c3ccc([N+](=O)[O-])cc3O)nc2-c2ccccc2O)cc1
Activity [4]: Dose-dependent effect | Activity [1]: Active | Activity [5]: Dose-dependent effect | Activity [2]: Active | IC50 ([3]; read-out: IC50): 27.5 µM

NS(=O)(=O)c1ccc(-n2nc(-c3ccccc3)nc2-c2ccccc2O)cc1
Activity [1]: inactive | Activity [2]: inactive | IC50 [3]: Not Active

NS(=O)(=O)c1ccc(-n2nc(-c3ccc(F)cc3O)nc2-c2ccccc2O)cc1
Activity [4]: Dose-dependent effect | Activity [1]: Active | Activity [5]: Dose-dependent effect | Activity [2]: Active | IC50 ([3]; read-out: IC50): 46.2 µM
